In article PMC10055046 (bioRxiv, 2023):

Key:
[1] = target: T1, OCT2CS (Homo sapiens, UniProt O15244); test: [3H]-verapamil accumulation in OCT2CS-injected oocytes; type: cell-based; conditions: 100 nM [3H]-verapamil, 30 min
T1 sequence (O15244 1-555): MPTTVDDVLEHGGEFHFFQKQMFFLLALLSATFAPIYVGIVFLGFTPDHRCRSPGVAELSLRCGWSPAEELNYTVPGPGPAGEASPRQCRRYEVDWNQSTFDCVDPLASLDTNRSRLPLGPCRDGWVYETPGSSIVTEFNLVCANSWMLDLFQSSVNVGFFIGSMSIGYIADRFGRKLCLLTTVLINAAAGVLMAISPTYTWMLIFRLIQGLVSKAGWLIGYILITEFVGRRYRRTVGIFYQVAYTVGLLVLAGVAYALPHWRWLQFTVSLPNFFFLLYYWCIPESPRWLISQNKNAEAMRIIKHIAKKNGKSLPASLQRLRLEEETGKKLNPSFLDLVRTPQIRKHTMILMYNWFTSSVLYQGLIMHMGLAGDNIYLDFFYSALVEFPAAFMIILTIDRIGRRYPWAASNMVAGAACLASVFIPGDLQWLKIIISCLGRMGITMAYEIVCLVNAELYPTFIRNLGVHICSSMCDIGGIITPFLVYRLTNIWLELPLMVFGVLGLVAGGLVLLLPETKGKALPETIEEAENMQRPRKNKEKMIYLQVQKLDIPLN

[2] = target: T2, WT hOCT1 (Homo sapiens, UniProt O15245); conditions: cited from earlier work
T2 sequence (O15245 1-554): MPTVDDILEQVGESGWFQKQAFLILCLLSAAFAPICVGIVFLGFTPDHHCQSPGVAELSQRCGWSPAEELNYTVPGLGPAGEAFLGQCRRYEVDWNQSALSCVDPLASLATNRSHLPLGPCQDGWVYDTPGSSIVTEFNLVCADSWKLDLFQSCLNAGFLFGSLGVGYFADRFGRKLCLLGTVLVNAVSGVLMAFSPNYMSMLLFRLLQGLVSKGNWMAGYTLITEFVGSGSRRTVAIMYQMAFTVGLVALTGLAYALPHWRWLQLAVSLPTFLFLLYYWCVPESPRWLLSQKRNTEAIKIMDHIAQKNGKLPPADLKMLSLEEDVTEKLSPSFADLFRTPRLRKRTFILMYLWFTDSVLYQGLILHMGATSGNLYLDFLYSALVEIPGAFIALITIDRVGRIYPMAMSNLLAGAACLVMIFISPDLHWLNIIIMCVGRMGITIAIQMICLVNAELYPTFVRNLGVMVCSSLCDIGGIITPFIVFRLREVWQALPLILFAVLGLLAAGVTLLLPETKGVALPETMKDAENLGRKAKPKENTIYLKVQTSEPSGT

Row | SMILES | Uptake of [3H]-verapamil by OCT2CS ([1]; n=3, listed as VPM) | Uptake of [3H]-verapamil by OCT2CS ([1]; n=3, listed as verapamil) | Kt for metformin, WT hOCT1, previous reports [2]
1 | COc1ccc(CCN(C)CCCC(C#N)(c2ccc(OC)c(OC)c2)C(C)C)cc1OC (racemic) [(±)-VPM, verapamil] | does not mediate uptake | does not accumulate | 
2 | CN(C)C(=N)N=C(N)N [metformin] |  |  | 1 to 5 mM
